Laboratory results published in patent US6900220B2, “Quinazolone derivatives as alpha 1A/B adrenergic receptor antagonists” (Syntex (U.S.A.) LLC, priority 2001, dated 2005).
Where a name gives a salt, the structure may show the parent alone.

Key:
[1] = test system: anesthetized dog; assay: Dog in vivo blood and intraurethral pressure assay; details: anesthetized mongrel dogs, i.v. bolus, increasing doses
Method: The following describes an in vivo assay for measuring the relative effect of test compounds on hypogastric nerve stimulation-induced increases in intraurethral pressure and phenylephrine-induced increases in diastolic blood pressure in anesthetized dog.
Mongrel dogs (10 to 20 kg) were fasted for 12 to 18 hours and anesthetized with […] (35 mg/kg, i.v.). An endotracheal tube was inserted and thereafter the lungs were mechanically ventilated with room air. The right femoral vein was isolated and cannulated with two polyethylene cannulae, one for the administration of a continuous infusion of phenobarbital sodium (5 to 10 mg/kg/hr) and the other for bolus administration of test substances. The right femoral artery was isolated and cannulated to the abdominal aorta with a fluid filled polyethylene cannula connected to an external pressure transducer for monitoring diastolic aortic pressure (DAP). The bladder was exposed via a ventral midline abdominal incision and emptied of urine through a 22 gauge needle. The bladder was cannulated through a stab incision with a water filled balloon catheter connected to an external pressure transducer for monitoring prostatic intraurethral pressure (IUP). The right hypogastric nerve (HGN) was carefully isolated and attached to a Dastre's electrode for nerve stimulation. […]

SMILES	inhibition of hypogastric nerve (HGN) stimulation-induced increases in intraurethral pressure (IUP) relative to phenylephrine-induced increases in diastolic aortic pressure (DAP) [1]	melting point [°C]
COc1cc2nc(N3CCN(C(=O)c4ccco4)CC3)nc(N)c2cc1OC [prazosin]	inhibited increases in IUP and DAP in similar fashion	
COc1cc2nc(N3CCc4c(cccc4S(=O)(=O)N4CCN(C)CC4)C3)[nH]c(=O)c2cc1OC [Compound 401, 6,7-dimethoxy-2-[5-(4-methyl-piperazine-1-sulfonyl)-3,4-dihydro-1H-isoquinolin-2-yl]-3H-quinazolin-4-one]		230 to 237
COc1cc2nc(N3CCc4c(cccc4C(=N)N4CCOCC4)C3)[nH]c(=O)c2cc1OC (as salt: hydrochloric acid salt) [Compound 901, 2-[5-(imino-morpholin-4-yl-methyl)-3,4-dihydro-1H-isoquinolin-2-yl]-6,7-dimethoxy-3H-quinazolin-4-one]		249 to 251
COc1cc2nc(N3CCn4c(cnc4NC4CCCCC4)C3)[nH]c(=O)c2cc1OC [Compound 301, 2-(3-cyclohexylamino-5,6-dihydro-8H-imidazo[1,5-a]pyrazin-7-yl)-6,7-dimethoxy-1H-quinazolin-4-one]		248 to 249.4
COc1cc2nc(N3CCc4c(CN5CCOCC5)cccc4C3)[nH]c(=O)c2cc1OC (as salt: hydrochloric acid salt) [Compound 701, 6,7-Dimethoxy-2-(5-morpholin-4-ylmethyl-3,4-dihydro-1H-isoquinolin-2-yl)-3H-quinazolin-4-one]		227.9 to 229.6
COc1cc2nc(N3CCc4c(cccc4-c4cnccc4N)C3)[nH]c(=O)c2cc1OC (as salt: hydrochloric acid salt) [Compound 902, 2-[5-(4-amino-pyridin-3-yl)-3,4-dihydro-1H-isoquinolin-2-yl]-6,7-dimethoxy-3H-quinazol-4-one]		> 300
COc1cc2[nH]c(N3CCn4c(-c5ccccc5)cnc4C3)nc(=O)c2cc1OC [Compound 904, 6,7-dimethoxy-2-(3-phenyl-5,6-dihydro-8H-imidazo[1,2-α]pyrazin-7-yl)-1H-quinazolin-4-one]		> 300
COc1cc2c(cc1OC)CN(c1nc(=O)c3cc(OC)c(OC)cc3[nH]1)CC2 [Compound 105, 2-(6,7-dimethoxy-3,4-dihydro-1H-isoquinolin-2-yl)-6,7-dimethoxy-1H-quinazolin-4-one]		188.6 to 190.4
COc1cc2nc(N3CCc4c(ncnc4N4CCOCC4)C3)[nH]c(=O)c2cc1OC [Compound 201, 6,7-dimethoxy-2-(4-morpholin-4-yl-5,8-dihydro-6H-pyrido[3,4-d]pyrimidin-7-yl)-3H-quinazolin-4-one]		287.7 to 290.4
